Measurements reported in EPA's ToxRefDB 2.

Key:
rat [1] = conditions: Subchronic oral toxicity in rodents, wistar, Feed, dose end: 13 week, group: systemic
rat [2] = conditions: Combined chronic toxicity/carcinogenicity, wistar, Oral, Feed, dose end: 104 week, group: systemic
mouse [3] = conditions: Subchronic oral toxicity in rodents, other, Feed, dose end: 13 week, group: systemic
mouse [4] = conditions: Combined chronic toxicity/carcinogenicity, b6c3f1, Oral, Feed, dose end: 2 year, group: systemic
rat [5] = conditions: Multigenerational reproductive toxicity study, sprague dawley, Oral, [Not Specified], dose end: 2 generation
rat [6] = conditions: Combined chronic toxicity/carcinogenicity, sprague dawley, Oral, Feed, dose end: 2 year, group: systemic
rabbit [7] = conditions: Prenatal developmental toxicity study, new zealand white, Oral, Gavage/Intubation, dose end: 19 GD
rabbit [8] = conditions: Prenatal developmental toxicity study, new zealand white, Oral, Gavage/Intubation, dose end: 19 GD; remark: listed apart in the source
[9] = systemic / in life observation / body weight / body weight gain + systemic / clinical chemistry / cholesterol / cholesterol
[10] = systemic / hematology / erythrocyte (rbc) count differential / erythrocyte (rbc) + systemic / hematology / hematocrit (hct) / hematocrit (…
[11] = systemic / clinical chemistry / urea nitrogen / urea nitrogen
[12] = systemic / clinical chemistry / urea nitrogen / urea nitrogen + systemic / clinical chemistry / alanine aminotransferase (alt/sgpt) / …
[13] = systemic / in life observation / mortality / mortality + systemic / in life observation / body weight / body weight
[14] = group: offspring, developmental / offspring survival late / viability index / viability index + systemic / in life observation / body weight / offspring (pup…
[15] = group: parental, systemic / in life observation / body weight / body weight + systemic / in life observation / body weight / body weight gain + systemic / …
[16] = systemic / pathology microscopic / liver / hyperplasia
[17] = systemic / pathology microscopic / liver / hyperplasia + systemic / in life observation / body weight / body weight + systemic / pathology …
[18] = group: developmental, developmental / developmental malformation / brain / dilated cerebral ventricle + developmental / developmental malformation / brain / …
[19] = group: maternal, systemic / in life observation / body weight / body weight + systemic / in life observation / body weight / body weight gain + reproductive…
[20] = group: developmental, developmental / developmental malformation / brain / hydrocephaly
[21] = group: maternal, reproductive / reproductive performance / postimplantation loss / postimplantation loss
[22] = group: maternal, reproductive / reproductive performance / postimplantation loss / postimplantation loss + reproductive / reproductive performance / aborted…

C[N+](C)(C)CCO.O=c1ccc([O-])n[nH]1
LOAEL (rat [1]; systemic / in life observation / body weight / body weight gain): 4760 mg/kg/day
LEL (rat [1]; [9]): 4760 mg/kg/day
NEL (rat [1]; [9]): 1060 mg/kg/day
NOAEL (rat [1]; [9]): 1060 mg/kg/day
LEL (rat [2]; [10]): 18.1 mg/kg/day
NEL (rat [2]; [10]): < 18.1 mg/kg/day
LOAEL (rat [2]; systemic / in life observation / body weight / body weight + systemic / in life observation / body weight / body weight gain): 1960 mg/kg/day
NOAEL (rat [2]; systemic / in life observation / body weight / body weight + systemic / in life observation / body weight / body weight gain + systemic / …): 183 mg/kg/day
LEL (mouse [3]; [11]): 5620 mg/kg/day
LOAEL (mouse [3]; [11]): 5620 mg/kg/day
NEL (mouse [3]; [12]): 1100 mg/kg/day
NOAEL (mouse [3]; [12]): 1100 mg/kg/day

C1CC[CH]([Sn+]([CH]2CCCCC2)[CH]2CCCCC2)CC1.[OH-] [Cyhexatin]
LOAEL (mouse [4]; systemic / in life observation / mortality / mortality): 6 mg/kg/day
LEL (mouse [4]; [13]): 6 mg/kg/day
NEL (mouse [4]; [13]): 3 mg/kg/day
NOAEL (mouse [4]; [13]): 3 mg/kg/day
LEL (rat [5]; [14]): 6 mg/kg/day
LOAEL (rat [5]; [14]): > 6 mg/kg/day
NEL (rat [5]; [14]): 0.5 mg/kg/day
NOAEL (rat [5]; [14]): ≥ 6 mg/kg/day
LEL (rat [5]; group: parental, systemic / in life observation / body weight / body weight + systemic / in life observation / body weight / body weight gain): 0.5 mg/kg/day
LOAEL (rat [5]; [15]): > 6 mg/kg/day
NEL (rat [5]; [15]): 0.1 mg/kg/day
NOAEL (rat [5]; [15]): ≥ 6 mg/kg/day
LOAEL (rat [6]; [16]): 1 mg/kg/day
NOAEL (rat [6]; [16]): < 1 mg/kg/day
LEL (rat [6]; [17]): 1 mg/kg/day
NEL (rat [6]; [17]): < 1 mg/kg/day
LEL (rabbit [7]; [18]): 0.75 mg/kg/day
LOAEL (rabbit [7]; [18]): > 3 mg/kg/day
NEL (rabbit [7]; [18]): < 0.75 mg/kg/day
NOAEL (rabbit [7]; [18]): ≥ 3 mg/kg/day
LOAEL (rabbit [7]; group: maternal, systemic / in life observation / body weight / body weight + systemic / in life observation / body weight / body weight gain): 3 mg/kg/day
LEL (rabbit [7]; [19]): 3 mg/kg/day
NEL (rabbit [7]; [19]): 0.75 mg/kg/day
NOAEL (rabbit [7]; [19]): 0.75 mg/kg/day
LEL (rabbit [8]; [20]): 3 mg/kg/day
LOAEL (rabbit [8]; [20]): > 3 mg/kg/day
NEL (rabbit [8]; [20]): 1 mg/kg/day
NOAEL (rabbit [8]; [20]): ≥ 3 mg/kg/day
LEL (rabbit [8]; [21]): 1 mg/kg/day
LOAEL (rabbit [8]; [21]): 1 mg/kg/day
NEL (rabbit [8]; [22]): 0.5 mg/kg/day
NOAEL (rabbit [8]; [22]): 0.5 mg/kg/day
